Paper PMC7873226, “Molecular mechanism and structural basis of small-molecule modulation of the gating of acid-sensing ion channel 1” (Communications Biology, 2021)
Where a chain is given by its changes, count along the chain named.

Key:
rASIC1a Y340A = biological target: T1, rASIC1a Y340A (Rattus norvegicus, UniProt P55926, Y340A); assay: Inhibition of pH 6.0-induced current of mutant channel Y340A; type: cell-based
T1 construct: expressed in transfected cells; host or cells: CHO cells, transient transfection (GFP cDNA co-transfected separately)
T1 sequence (P55926 1-526 Y340A): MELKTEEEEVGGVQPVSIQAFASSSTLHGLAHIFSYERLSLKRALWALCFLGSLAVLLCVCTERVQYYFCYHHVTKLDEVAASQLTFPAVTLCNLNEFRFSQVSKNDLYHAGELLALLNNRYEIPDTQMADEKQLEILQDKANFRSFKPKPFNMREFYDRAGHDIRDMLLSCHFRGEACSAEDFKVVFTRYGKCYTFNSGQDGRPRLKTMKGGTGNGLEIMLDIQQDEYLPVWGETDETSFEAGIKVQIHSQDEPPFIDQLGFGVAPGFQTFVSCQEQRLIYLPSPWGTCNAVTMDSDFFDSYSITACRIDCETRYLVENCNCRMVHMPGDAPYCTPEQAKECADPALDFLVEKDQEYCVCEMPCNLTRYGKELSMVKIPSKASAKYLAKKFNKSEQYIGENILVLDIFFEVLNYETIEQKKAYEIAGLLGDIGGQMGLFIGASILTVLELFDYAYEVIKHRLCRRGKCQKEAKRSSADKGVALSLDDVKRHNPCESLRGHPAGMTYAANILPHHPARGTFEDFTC
Method: (§1) Chinese Hamster Ovary (CHO) cells stably expressing rat ASIC1a were cultured in Ham’s F12, supplemented with 10% FBS, 1% penicillin–streptomycin and 500 µg/mL G418 and incubated at 37 °C with 5% CO2. Transient transfections of rASIC1a and cASIC1 wild-type or mutant channels in CHO cells were performed with Lipofectamine 3000 (Thermo Fisher Scientific) according to the manufacturer’s recommendations. The green fluorescent protein (GFP) cDNA (at 1/10 the amount of channel cDNA) was co-transfected with channel cDNA to aid the identification of transfected cells under the microscope in patch clamp experiments. All cDNAs were sequence verified.
Cells were freshly dissociated with CellStripper (Corning) and dispersed in a chamber on the stage of an inverted microscope. […]
All recordings were performed at room temperature using an Axopatch 200B amplifier and pClamp 11 software (Molecular Devices). Currents were measured by whole-cell patch clamp, digitized at 10 kHz and lowpass filtered at 2 kHz. […] Responses were elicited by rapid perfusion of acidic solutions using the SF-77B Fast-Step Perfusion device (Warner Instruments) for 40 ms once every 30 s (unless indicated otherwise) and recorded till steady state was reached. […]

rat ASIC1a = biological target: T2, rat ASIC1a (Rattus norvegicus, UniProt P55926); assay: Kinetics of onset of and recovery (wash) from compound inhibition; type: cell-based; conditions: for pH 6.8-induced current, % pH7.4 control: holding pH 7.4, one cell; for pH 6.8-induced current, % pH8.2 control: holding pH 8.2, one cell; for time constant of current inhibition: holding pH 8.2, pH 6.0 test pulses; for max - % pH7.4 or 8.2 Control (Y): maximal wash current / ss - % pH7.4 or 8.2 Control (Y): steady-state wash current: after 100 nM
T2 construct: expressed in transfected cells
T2 sequence (P55926 1-526): T1 sequence (P55926 1-526 Y340A) with A340Y
Method: as §1
Cells were freshly dissociated with CellStripper (Corning) and dispersed in a chamber on the stage of an inverted microscope. Upon formation of the whole-cell conformation, the cell was lifted from the bottom of the chamber and placed at the tip of a tubing perfusing an extracellular solution containing (in mM): 149 NaCl, 2 CaCl2, 4 KCl, 1 MgCl2, 5 glucose, 10 HEPES, pH 7.4, 310 mOsm/L. Extracellular solutions at more basic or acidic pHs were made by titrating the above pH 7.4 solution with NaOH or HCl (5 mM MES was added to solutions at pH 6.0 and lower). Pipette electrodes were filled with an intracellular solution containing (in mM): 135 KCl, 4 MgATP, 0.3 Na2GTP, 10 EGTA, and 20 HEPES, pH 7.2, 290 mOsm/L.
All recordings were performed at room temperature using an Axopatch 200B amplifier and pClamp 11 software (Molecular Devices). Currents were measured by whole-cell patch clamp, digitized at 10 kHz and lowpass filtered at 2 kHz. Series resistance was 75% compensated. Responses were elicited by rapid perfusion of acidic solutions using the SF-77B Fast-Step Perfusion device (Warner Instruments) for 40 ms once every 30 s (unless indicated otherwise) and recorded till steady state was reached. The holding potential was 0 mV unless indicated otherwise.
Baseline values (i.e., current amplitudes at the conditioning pH) were subtracted to obtain responses evoked by the test pH. Responses were normalized for each cell before averaging (see figure legends for more detail on normalization for each type of experiment). Concentration–response data were fitted to a logistic function of the form: R = (A1–A2)/(1 + (C/C0)^h)+A2, where R is the normalized response, C is either pH or compound concentration, C0 is the pH/concentration at which half-maximal response occurs (pH50 or IC50), h is the Hill coefficient, and A1 and A2 are constants. Kinetic parameters were obtained by fitting the data with either a single or double exponential function. Fitted data are shown as solid, dashed, or dotted curves.

[1] = 100 nM, t = -50 s (wash starts at t = 0 s)
[2] = holding pH 7.4 (source data Fig. 2d)
[3] = holding pH 8.2 (source data Fig. 2d)

Cc1cc(N2CC(Oc3cc(F)c4c(N)n[nH]c4c3)C2)c(F)cn1 [JNJ-67869386]
IC50 (rASIC1a Y340A): 572 ± 177 nM | overshoot of maximum wash current above pre-block control level (rat ASIC1a; 100 nM, holding pH 7.4): > 50% | pH 6.8-induced current, % pH7.4 control (rat ASIC1a; 100 nM, t = 0 s): 4.9% | pH 6.8-induced current, % pH7.4 control (rat ASIC1a; 100 nM, t = -10 s): 4.7% | pH 6.8-induced current, % pH7.4 control (rat ASIC1a; 100 nM, t = -20 s): 3.6% | pH 6.8-induced current, % pH7.4 control (rat ASIC1a; 100 nM, t = -30 s): 3.3% | pH 6.8-induced current, % pH7.4 control (rat ASIC1a; 100 nM, t = -40 s): 4.5% | pH 6.8-induced current, % pH7.4 control (rat ASIC1a; [1]): 6.7% | pH 6.8-induced current, % pH8.2 control (rat ASIC1a; 100 nM, t = 0 s): 4.5% | pH 6.8-induced current, % pH8.2 control (rat ASIC1a; 100 nM, t = -10 s): 7.4% | pH 6.8-induced current, % pH8.2 control (rat ASIC1a; 100 nM, t = -20 s): 4.9% | pH 6.8-induced current, % pH8.2 control (rat ASIC1a; 100 nM, t = -30 s): 4.9% | pH 6.8-induced current, % pH8.2 control (rat ASIC1a; 100 nM, t = -40 s): 5.7% | pH 6.8-induced current, % pH8.2 control (rat ASIC1a; [1]): 47.2% | time constant of current inhibition (rat ASIC1a; 100 nM): 3.6 ± 0.2 s | time constant of wash from inhibition (rat ASIC1a; 100 nM, wash at pH 7.8, pH 6.0-evoked currents): 12.6 ± 0.6 s | time constant of wash from inhibition (rat ASIC1a; 100 nM, wash at pH 8.2, pH 6.0-evoked currents): 12.7 ± 1.3 s | max - % pH7.4 or 8.2 Control (Y): maximal wash current (rat ASIC1a; [2]): 154.4% | ss - % pH7.4 or 8.2 Control (Y): steady-state wash current (rat ASIC1a; [2]): 95.3% | max - % pH7.4 or 8.2 Control (Y): maximal wash current (rat ASIC1a; [3]): 96.9% | ss - % pH7.4 or 8.2 Control (Y): steady-state wash current (rat ASIC1a; [3]): 96.8% | pH 6.8-induced current, % pH7.4 control (rat ASIC1a; wash after 100 nM, t = 10 s): 36.5% | pH 6.8-induced current, % pH7.4 control (rat ASIC1a; wash after 100 nM, t = 20 s): 90.8% | pH 6.8-induced current, % pH7.4 control (rat ASIC1a; wash after 100 nM, t = 30 s): 132.5% | pH 6.8-induced current, % pH7.4 control (rat ASIC1a; wash after 100 nM, t = 40 s): 161.6% | pH 6.8-induced current, % pH7.4 control (rat ASIC1a; wash after 100 nM, t = 50 s): 157.3% | pH 6.8-induced current, % pH7.4 control (rat ASIC1a; wash after 100 nM, t = 60 s): 153.5% | pH 6.8-induced current, % pH7.4 control (rat ASIC1a; wash after 100 nM, t = 70 s): 157.1% | pH 6.8-induced current, % pH7.4 control (rat ASIC1a; wash after 100 nM, t = 80 s): 151.7% | pH 6.8-induced current, % pH7.4 control (rat ASIC1a; wash after 100 nM, t = 90 s): 149.4% | pH 6.8-induced current, % pH7.4 control (rat ASIC1a; wash after 100 nM, t = 100 s): 151.7% | pH 6.8-induced current, % pH7.4 control (rat ASIC1a; wash after 100 nM, t = 110 s): 141.4% | pH 6.8-induced current, % pH7.4 control (rat ASIC1a; wash after 100 nM, t = 120 s): 127.3% | pH 6.8-induced current, % pH7.4 control (rat ASIC1a; wash after 100 nM, t = 130 s): 116.2% | pH 6.8-induced current, % pH7.4 control (rat ASIC1a; wash after 100 nM, t = 140 s): 120.1% | pH 6.8-induced current, % pH7.4 control (rat ASIC1a; wash after 100 nM, t = 150 s): 108.5% | pH 6.8-induced current, % pH7.4 control (rat ASIC1a; wash after 100 nM, t = 160 s): 117.3% | pH 6.8-induced current, % pH7.4 control (rat ASIC1a; wash after 100 nM, t = 170 s): 108.8% | pH 6.8-induced current, % pH7.4 control (rat ASIC1a; wash after 100 nM, t = 180 s): 100.4% | pH 6.8-induced current, % pH7.4 control (rat ASIC1a; wash after 100 nM, t = 190 s): 95.1% | pH 6.8-induced current, % pH7.4 control (rat ASIC1a; wash after 100 nM, t = 200 s): 97.0% | pH 6.8-induced current, % pH7.4 control (rat ASIC1a; wash after 100 nM, t = 210 s): 100.5% | pH 6.8-induced current, % pH7.4 control (rat ASIC1a; wash after 100 nM, t = 220 s): 101.0% | pH 6.8-induced current, % pH8.2 control (rat ASIC1a; wash after 100 nM, t = 10 s): 18.2% | pH 6.8-induced current, % pH8.2 control (rat ASIC1a; wash after 100 nM, t = 20 s): 43.8% | pH 6.8-induced current, % pH8.2 control (rat ASIC1a; wash after 100 nM, t = 30 s): 63.8% | pH 6.8-induced current, % pH8.2 control (rat ASIC1a; wash after 100 nM, t = 40 s): 78.5% | pH 6.8-induced current, % pH8.2 control (rat ASIC1a; wash after 100 nM, t = 50 s): 78.9% | pH 6.8-induced current, % pH8.2 control (rat ASIC1a; wash after 100 nM, t = 60 s): 93.2% | pH 6.8-induced current, % pH8.2 control (rat ASIC1a; wash after 100 nM, t = 70 s): 87.4% | pH 6.8-induced current, % pH8.2 control (rat ASIC1a; wash after 100 nM, t = 80 s): 90.7% | pH 6.8-induced current, % pH8.2 control (rat ASIC1a; wash after 100 nM, t = 90 s): 90.7% | pH 6.8-induced current, % pH8.2 control (rat ASIC1a; wash after 100 nM, t = 100 s): 91.5% | pH 6.8-induced current, % pH8.2 control (rat ASIC1a; wash after 100 nM, t = 110 s): 90.6% | pH 6.8-induced current, % pH8.2 control (rat ASIC1a; wash after 100 nM, t = 120 s): 89.7% | pH 6.8-induced current, % pH8.2 control (rat ASIC1a; wash after 100 nM, t = 130 s): 92.5% | pH 6.8-induced current, % pH8.2 control (rat ASIC1a; wash after 100 nM, t = 140 s): 93.0% | pH 6.8-induced current, % pH8.2 control (rat ASIC1a; wash after 100 nM, t = 150 s): 92.2% | pH 6.8-induced current, % pH8.2 control (rat ASIC1a; wash after 100 nM, t = 160 s): 93.0%

COc1ccc(Oc2ccc(-c3nc4cc(C(=N)N)ccc4[nH]3)cc2)cc1OC [JNJ-799760]
IC50 (rASIC1a Y340A): 260 ± 89.8 nM | time constant of current inhibition (rat ASIC1a; 100 nM): 1.6 ± 0.1 s | time constant of current inhibition (rat ASIC1a; 1 µM): 0.2248 ± 0.0189 s
